The assay deals with T1, soluble guanylate cyclase (sGC) (Bos taurus, UniProt P16068).
T1 construct: The sGC which was employed had been isolated from bovine lung; from tissue; host or cells: bovine lung
T1 sequence (P16068 1-619): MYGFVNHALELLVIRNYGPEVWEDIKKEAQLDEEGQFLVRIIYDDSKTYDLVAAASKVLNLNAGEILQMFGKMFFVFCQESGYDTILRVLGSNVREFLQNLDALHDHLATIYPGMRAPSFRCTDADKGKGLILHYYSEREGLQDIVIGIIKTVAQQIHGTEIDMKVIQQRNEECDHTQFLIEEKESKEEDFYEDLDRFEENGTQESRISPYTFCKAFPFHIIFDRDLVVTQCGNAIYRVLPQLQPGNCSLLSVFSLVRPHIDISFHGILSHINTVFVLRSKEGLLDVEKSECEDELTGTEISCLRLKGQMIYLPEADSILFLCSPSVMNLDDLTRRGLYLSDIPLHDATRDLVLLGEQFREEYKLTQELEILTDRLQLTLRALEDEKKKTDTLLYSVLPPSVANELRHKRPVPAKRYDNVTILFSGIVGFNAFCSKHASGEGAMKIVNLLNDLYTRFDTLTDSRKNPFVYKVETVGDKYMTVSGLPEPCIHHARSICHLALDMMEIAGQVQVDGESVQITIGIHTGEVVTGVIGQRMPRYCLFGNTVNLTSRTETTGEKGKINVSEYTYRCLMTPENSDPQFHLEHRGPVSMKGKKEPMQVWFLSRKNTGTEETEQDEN
T1 sequence (P19687 1-691 partner): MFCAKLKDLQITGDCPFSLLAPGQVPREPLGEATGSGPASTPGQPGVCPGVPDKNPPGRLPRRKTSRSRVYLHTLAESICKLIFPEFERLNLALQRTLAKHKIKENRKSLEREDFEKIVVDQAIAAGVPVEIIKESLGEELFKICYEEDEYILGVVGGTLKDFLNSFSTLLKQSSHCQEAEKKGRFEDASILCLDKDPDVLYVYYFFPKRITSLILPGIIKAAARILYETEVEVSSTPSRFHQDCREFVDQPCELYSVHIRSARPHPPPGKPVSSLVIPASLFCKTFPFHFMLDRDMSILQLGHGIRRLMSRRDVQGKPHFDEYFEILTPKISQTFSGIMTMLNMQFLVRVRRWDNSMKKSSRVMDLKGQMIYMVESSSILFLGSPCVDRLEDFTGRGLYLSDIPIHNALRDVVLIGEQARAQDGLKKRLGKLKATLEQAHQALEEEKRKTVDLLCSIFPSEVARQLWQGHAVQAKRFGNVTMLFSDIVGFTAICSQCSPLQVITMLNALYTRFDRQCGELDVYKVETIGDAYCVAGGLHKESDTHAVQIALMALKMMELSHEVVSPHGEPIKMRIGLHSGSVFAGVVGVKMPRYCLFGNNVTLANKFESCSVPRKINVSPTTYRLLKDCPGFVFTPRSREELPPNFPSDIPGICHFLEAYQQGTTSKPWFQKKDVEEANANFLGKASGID
The assay can be described thus: Activation of the soluble guanylate cyclase (cGMP enzyme immunoassay). Format: biochemical, bovine. The settings on record: n-fold stimulation of basal enzyme activity. As for the experimental part: The activation of the soluble guanylate cyclase (sGC) which catalyzes the conversion of guanosine triphosphate (GTP) into cyclic guanosine monophosphate (cGMP) and pyrophosphate, by the compounds according to the invention was quantified with the aid of an enzyme immunoassay (EIA) from Amersham. For this purpose the substances to be tested were initially incubated with sGC in microtiter plates, and the amount of the cGMP formed was then determined.
The sGC which was employed had been isolated from bovine lung (see Methods in Enzymology, Volume 195, p. 377). The test solutions (100 μl per well) contained 50 mM triethanolamine (TEA) buffer (pH 7.5), 3 mM MgCl2, 3 mM reduced glutathione (GSH), 0.1 mM GTP, 1 mM 3-isobutyl-1-methylxanthine (IBMX), suitably diluted enzyme solution and the substance to be tested or, in the control experiments, the solvent. The substances to be tested were dissolved in dimethyl sulfoxide (DMSO) and the solution was diluted with DMSO/water, so that the final concentration (c) of the substance to be tested in the test solution had the value indicated in the table. The DMSO concentration in the test solution was 5% (v/v). The reaction was initiated by addition of the sGC. The reaction mixture was incubated at 37° C. for 15 to 20 minutes and then stopped by ice-cooling and addition of the stop reagent (50 mM EDTA, pH 8.0). An aliquot of 50 μl was taken and used for determining the cGMP content using the acetylation protocol of the Amersham cGMP-EIA kit. The absorption of the samples was measured at 450 nm (reference wavelength 620 nm) in a microtiter plate reader. The cGMP concentration was determined using a standard curve which was obtained under the same test conditions. The activation of sGC by a test substance is given as the n-fold stimulation of the basal enzyme activity which was found in the control experiments (using solvent instead of test substance) (calculated using the formula n-fold stimulation=[cGMP]test substance/[cGMP]control).

The text below walks through data of patent US8541410B2, “Sulfur substituted sulfonylaminocarboxylic acid N-arylamides, their preparation, their use and pharmaceutical preparations comprising them” (Sanofi-aventis Deutschland GmbH, priority 1998, dated 2013).

For the compound `Cc1cc(NC(=O)c2cc(Cl)ccc2NS(=O)(=O)c2ccc(Cl)cc2)ccc1S(=O)(=O)N1C[C@@H](C)O[C@@H](C)C1` [Example 193, 5-Chloro-2-(4-chloro-phenylsulfonylamino)-N-(4-(cis-2,6-dimethyl-morpholine-4-sulfonyl)-3-methyl-phenyl)-benzamide], where the note is “concentration c 10 μM”, the n-fold stimulation came to 31.1. Under “concentration c 50 μM”, `O=C(Nc1ccc(S(=O)(=O)N2CCOCC2)cc1)c1cc(Cl)ccc1NS(=O)(=O)c1cccc([N+](=O)[O-])c1` [Example 151, 5-Chloro-N-(4-(morpholine-4-sulfonyl)-phenyl)-2-(3-nitro-phenylsulfonylamino)-benzamide] came in with a n-fold stimulation of 19.9. Still for that read-out and setting: then `CSc1ccc(NC(=O)c2cc(Cl)ccc2NS(=O)(=O)c2ccc(Cl)cc2)cc1` [Example 23, 5-Chloro-2-(4-chloro-phenylsulfonylamino)-N-(4-methylmercapto-phenyl)-benzamide], with 14.7. The same measure, in the same setting: the figure for `C[C@@H]1CN(S(=O)(=O)c2ccc(NC(=O)c3cc(Cl)ccc3NS(=O)(=O)c3ccc(Cl)cc3)cc2)C[C@H](C)O1` [Example 66, 5-Chloro-2-(4-chloro-phenylsulfonylamino)-N-(4-(cis-2,6-dimethyl-morpholine-4-sulfonyl)-phenyl)-benzamide] is 33; for `O=C(Nc1ccc(S(=O)(=O)N2CCN(CCO)CC2)cc1)c1cc(Cl)ccc1NS(=O)(=O)c1ccc(Cl)cc1` [Example 73, 5-Chloro-2-(4-chloro-phenylsulfonylamino)-N-(4-(4-(2-hydroxy-ethyl)-piperazine-1-sulfonyl)-phenyl)-benzamide] it is 16.5.

Turning to `Cc1noc(C)c1S(=O)(=O)Nc1ccc(Cl)cc1C(=O)Nc1ccc(S(=O)(=O)N2CC(C)CC(C)C2)cc1` (stereo not drawn) [Example 223, 5-Chloro-2-(3,5-dimethyl-isoxazole-4-sulfonylamino)-N-(4-(3,5-dimethylpiperidine-1-sulfonyl)-phenyl)-benzamide], the n-fold stimulation (concentration c 10 μM) turned out to be 27.1. Compound `O=C(Nc1ccc(S(=O)(=O)N2CCOCC2)cc1)c1cc(Cl)ccc1NS(=O)(=O)c1ccc(F)cc1` [Example 146, 5-Chloro-2-(4-fluoro-phenylsulfonylamino)-N-(4-(morpholine-4-sulfonyl)-phenyl)-benzamide] displayed a n-fold stimulation (concentration c 50 μM) of 10.2.

In the case of `CCCCS(=O)(=O)Nc1ccc(Cl)cc1C(=O)Nc1ccc(S(=O)(=O)N2CCOCC2)cc1` [Example 156, 2-(Butyl-sulfonylamino)-5-chloro-N-(4-(morpholine-4-sulfonyl)-phenyl)-benzamide], the n-fold stimulation (concentration c 50 μM) is 7.8. Regarding `O=C(Nc1ccc(S(=O)(=O)N2CCSCC2)cc1)c1sccc1NS(=O)(=O)c1ccc(Cl)cc1` [Example 84, 3-(4-Chloro-phenylsulfonylamino)-N-(4-(thiomorpholine-4-sulfonyl)-phenyl)-thiophene-2-carboxamide], for the setting “concentration c 50 μM”, the n-fold stimulation stood at 23.7. In turn, `O=C(Nc1ccc(S(=O)(=O)N2CCOCC2)cc1)c1cc(Cl)ccc1NS(=O)(=O)c1cccc(C(F)(F)F)c1` [Example 157, 5-Chloro-N-(4-(morpholine-4-sulfonyl)-phenyl)-2-(3-trifluoromethyl-phenylsulfonylamino)-benzamide] had a n-fold stimulation (concentration c 50 μM) of 4.6. Under “concentration c 50 μM”, `CCS(=O)(=O)Nc1ccc(Cl)cc1C(=O)Nc1ccc(S(=O)(=O)N2CCOCC2)cc1` [Example 134, 5-Chloro-2-(ethylsulfonylamino)-N-(4-(morpholine-4-sulfonyl)-phenyl)-benzamide] yielded a n-fold stimulation of 7.2. Same read-out and setting: then `COc1cc(NS(=O)(=O)c2ccc(Cl)s2)c(C(=O)Nc2ccc(S(=O)(=O)N3CCSCC3)cc2)cc1OC` [Example 206, 4,5-Dimethoxy-2-(5-chloro-thiophene-2-sulfonylamino)-N-(4-(thiomorpholine-4-sulfonyl)-phenyl)-benzamide], with 19.3; and `COc1cc(NS(=O)(=O)c2ccc(Cl)cc2)c(C(=O)Nc2ccc(S(=O)(=O)N3CCN(C)CC3)cc2)cc1OC` [Example 87, 2-(4-Chloro-phenylsulfonylamino)-4,5-dimethoxy-N-(4-(4-methyl-piperazine-1-sulfonyl)-phenyl)-benzamide], with 12.5.

`O=C(Nc1ccc(S(=O)(=O)N2CCOCC2)cc1)c1cc(Cl)ccc1NS(=O)(=O)c1ccc(Cl)c(Cl)c1` [Example 69, 5-Chloro-2-(3,4-dichloro-phenylsulfonylamino)-N-(4-(morpholine-4-sulfonyl)-phenyl)-benzamide] displayed a n-fold stimulation (concentration c 50 μM) of 28.3. Consider `O=C(Nc1ccc(S(=O)(=O)N2CCCCC2)cc1)c1cc(Cl)ccc1NS(=O)(=O)c1ccc(Cl)cc1` [Example 76, 5-Chloro-2-(4-chloro-phenylsulfonylamino)-N-(4-(piperidine-1-sulfonyl)-phenyl)-benzamide], for which, under “concentration c 50 μM”, the n-fold stimulation turned out to be 10.6. Regarding `COc1cc(NS(=O)(=O)c2ccc(Cl)cc2)c(C(=O)Nc2ccc(S(=O)(=O)N3CCOCC3)cc2)cc1OC` [Example 72, 2-(4-Chloro-phenylsulfonylamino)-4,5-dimethoxy-N-(4-(morpholine-4-sulfonyl)-phenyl)-benzamide], the n-fold stimulation (concentration c 50 μM) is 27. The compound `Cc1noc(C)c1S(=O)(=O)Nc1ccc(Cl)cc1C(=O)Nc1ccc(S(=O)(=O)N2CCOCC2)cc1` [Example 224, 5-Chloro-2-(3,5-dimethyl-isoxazole-4-sulfonylamino)-N-(4-(morpholine-4-sulfonyl)-phenyl)-benzamide] came in with a n-fold stimulation (concentration c 50 μM) of 27.8. Turning to `Cc1noc(C)c1S(=O)(=O)Nc1ccc(Cl)cc1C(=O)Nc1ccc(S(=O)(=O)N2CCc3ccccc3C2)cc1` [Example 208, 5-Chloro-2-(3,5-dimethyl-isoxazole-4-sulfonylamino)-N-(4-(1,2,3,4-tetrahydro-isoquinoline-2-sulfonyl)-phenyl)-benzamide], the n-fold stimulation (concentration c 10 μM) stood at 23.1.
